Measurements published in ChEMBL document CHEMBL5154652, “Design, synthesis and anti-hepatocellular carcinoma activity of 3-arylisoquinoline alkaloids” (Eur J Med Chem, 2022).
pIC50: −log10 of the molar value. Calls of active or inactive are those of the source. The rule behind the calls is not given here.

Legend:
[1] = system: Huh-7; assay: Antiproliferative activity against human Huh-7 cells after 72 hrs by MTT assay; type: functional, cell-based; settings: Huh-7, 72 h
[2] = system: HCT-116; assay: Antiproliferative activity against human HCT-116 cells after 72 hrs by MTT assay; type: functional, cell-based; settings: HCT-116, 72 h
[3] = system: SGC-7901; assay: Antiproliferative activity against human SGC-7901 cells after 72 hrs by MTT assay; type: functional, cell-based; settings: SGC-7901, 72 h
[4] = system: BGC-823; assay: Antiproliferative activity against human BGC-823 cells after 72 hrs by MTT assay; type: functional, cell-based; settings: BGC-823, 72 h
[5] = system: U-251; assay: Antiproliferative activity against human U-251 cells after 72 hrs by MTT assay; type: functional, cell-based; settings: U-251, 72 h
[6] = system: L02; assay: Antiproliferative activity against human L02 cells after 72 hrs by MTT assay; type: functional, cell-based; settings: L02, 72 h
[7] = target: DNA topoisomerase 2-alpha (Homo sapiens) (UniProt P11388); assay: Inhibition of DNA topoisomerase 2 (unknown origin) at 25 uM measured by agar gel electrophoresis relative to control
Sequence of DNA topoisomerase 2-alpha (Homo sapiens) (P11388 whole entry): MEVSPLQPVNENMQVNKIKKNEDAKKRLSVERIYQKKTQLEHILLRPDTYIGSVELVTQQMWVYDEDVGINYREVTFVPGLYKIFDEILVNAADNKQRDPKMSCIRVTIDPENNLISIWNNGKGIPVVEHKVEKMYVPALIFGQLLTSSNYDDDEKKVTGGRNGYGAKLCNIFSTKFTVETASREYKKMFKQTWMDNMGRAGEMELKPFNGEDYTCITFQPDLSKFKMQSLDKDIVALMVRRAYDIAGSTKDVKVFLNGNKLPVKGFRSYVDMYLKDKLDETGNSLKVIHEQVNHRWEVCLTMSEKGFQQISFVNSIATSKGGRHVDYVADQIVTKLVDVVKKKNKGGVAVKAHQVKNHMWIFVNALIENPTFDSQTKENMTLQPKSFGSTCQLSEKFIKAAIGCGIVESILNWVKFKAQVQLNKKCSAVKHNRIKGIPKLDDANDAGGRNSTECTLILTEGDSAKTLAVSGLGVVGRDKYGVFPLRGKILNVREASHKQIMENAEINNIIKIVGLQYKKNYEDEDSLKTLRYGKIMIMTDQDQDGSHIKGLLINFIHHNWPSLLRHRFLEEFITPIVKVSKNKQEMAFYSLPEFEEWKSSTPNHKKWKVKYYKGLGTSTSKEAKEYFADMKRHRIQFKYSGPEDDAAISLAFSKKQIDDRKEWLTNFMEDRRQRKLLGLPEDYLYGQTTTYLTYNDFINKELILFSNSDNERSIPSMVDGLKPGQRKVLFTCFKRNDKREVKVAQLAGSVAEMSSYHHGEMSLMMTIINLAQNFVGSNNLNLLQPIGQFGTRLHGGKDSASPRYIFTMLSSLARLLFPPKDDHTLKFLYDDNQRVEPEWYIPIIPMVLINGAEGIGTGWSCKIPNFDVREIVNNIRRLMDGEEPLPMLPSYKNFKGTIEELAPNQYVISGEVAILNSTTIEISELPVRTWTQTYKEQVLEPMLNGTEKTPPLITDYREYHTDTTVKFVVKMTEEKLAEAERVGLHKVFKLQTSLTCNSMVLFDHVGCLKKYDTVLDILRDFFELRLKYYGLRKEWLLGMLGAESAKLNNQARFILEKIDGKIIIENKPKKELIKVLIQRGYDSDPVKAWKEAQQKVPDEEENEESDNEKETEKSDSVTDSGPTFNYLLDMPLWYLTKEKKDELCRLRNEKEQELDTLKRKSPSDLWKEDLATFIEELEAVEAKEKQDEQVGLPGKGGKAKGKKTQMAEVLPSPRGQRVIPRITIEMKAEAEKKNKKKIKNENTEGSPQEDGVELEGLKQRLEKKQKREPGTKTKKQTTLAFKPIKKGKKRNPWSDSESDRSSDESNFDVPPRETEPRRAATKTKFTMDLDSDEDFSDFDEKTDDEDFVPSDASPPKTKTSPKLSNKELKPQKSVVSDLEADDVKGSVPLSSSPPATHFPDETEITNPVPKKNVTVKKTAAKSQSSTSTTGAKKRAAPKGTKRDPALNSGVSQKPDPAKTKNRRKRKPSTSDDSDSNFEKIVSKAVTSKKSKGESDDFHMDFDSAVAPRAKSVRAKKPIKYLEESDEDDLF

[8] = Genotoxicity in human Huh-7 cells assessed as induction of DNA damage at 20 uM by comet assay; type: toxicity, cell-based; settings: huh-7, 20 µM
[9] = Genotoxicity in human HCCLM9 cells assessed as induction of DNA damage at 20 uM by comet assay; type: toxicity, cell-based; settings: hcclm9, 20 µM
[10] = system: Huh-7; assay: Antiproliferative activity against human Huh-7 cells at 2 to 8 uM after 24 hrs by EdU incorporation assay; type: functional, cell-based; settings: dose 2-8 µM
[11] = system: Huh-7; assay: Inhibition of cell invasion in human Huh-7 cells at 2 to 8 uM after 24 hrs; type: functional, cell-based; settings: dose 2-8 µM
[12] = system: HCCLM9; assay: Inhibition of MMP-9 expression in human HCCLM9 cells at 3.75 to 15 uM measured by western blot analysis; type: functional, cell-based; settings: dose 3.75-15 µM
[13] = system: Huh-7; assay: Induction of cell cycle arrest in human Huh-7 cells assessed as decrease in cell accumulation at G0/G1 phase at 5 to 20 uM measured after 48 hrs by flow cytometry analysis; type: functional, cell-based; settings: dose 5-20 µM
[14] = system: HCCLM9; assay: Induction of cell cycle arrest in human HCCLM9 cells assessed as decrease in cell accumulation at G0/G1 phase at 3.75 to 15 uM measured after 48 hrs by flow cytometry analysis; type: functional, cell-based; settings: dose 3.75-15 µM
[15] = system: Huh-7; assay: Induction of cell cycle arrest in human Huh-7 cells assessed as increase in cell accumulation at G2/M phase at 5 to 20 uM measured after 48 hrs by flow cytometry analysis; type: functional, cell-based; settings: dose 5-20 µM
[16] = system: Huh-7; assay: Induction of apoptosis in human Huh-7 cells at 5 to 20 uM measured by Annexin V /propidium iodide staining method; type: functional, cell-based; settings: dose 5-20 µM
[17] = system: Huh-7; assay: Induction of apoptosis in human Huh-7 cells assessed as reduction in Bcl-2 expression at 5 to 20 uM; type: functional, cell-based; settings: dose 5-20 µM
[18] = system: Huh-7; assay: Induction of apoptosis in human Huh-7 cells assessed as increase in cleaved caspase-3 expression at 5 to 20 uM; type: functional, cell-based; settings: dose 5-20 µM
[19] = system: HCCLM9; assay: Induction of apoptosis in human HCCLM9 cells assessed as increase in Bax expression at 3.75 to 15 uM; type: functional, cell-based; settings: dose 3.75-15 µM
[20] = system: Huh-7; assay: Induction of mitochondrial apoptosis in human Huh-7 cells assessed as inhibition of p-Akt levels at 5 to 20 uM measured after 48 hrs by Western blot analysis; type: functional, cell-based; settings: dose 5-20 µM
[21] = system: HCCLM9; assay: Induction of mitochondrial apoptosis in human HCCLM9 cells assessed as inhibition of p-Akt levels at 3.75 to 15 uM measured after 48 hrs by Western blot analysis; type: functional, cell-based; settings: dose 3.75-15 µM
[22] = system: HCCLM9; assay: Induction of mitochondrial apoptosis in human HCCLM9 cells assessed as inhibition of p-mTOR levels at 3.75 to 15 uM measured after 48 hrs by Western blot analysis; type: functional, cell-based; settings: dose 3.75-15 µM
[23] = Half-life in male Sprague-Dawley rat at 100 mg/kg, ip; type: ADME, organism-based; settings: in vivo

pIC50 [1]: 5.01
pIC50 [2]: 4.19
pIC50 [3]: 4.51
pIC50 [4]: 4.75
pIC50 [5]: 4.87
inhibition [7]: Active
half-life [23]: 3.73 h
Structure (SMILES): CNCc1cc2c(cc1-c1cc3ccc4c(c3cn1)OCO4)OCO2
pIC50 [6]: < 3.82
Activity [8]: Non-Toxic
Activity [9]: Non-Toxic
Activity [10]: Active
inhibition [11]: Active
inhibition [12]: Active
Activity [13]: Active
Activity [14]: Active
Activity [15]: Active
Activity [16]: Active
Activity [17]: Active
Activity [18]: Active
Activity [19]: Active
Activity [20]: Active
Activity [21]: Active
Activity [22]: Active
